Measured values as given in EP4711361A1, “NITROGEN-CONTAINING HETEROCYCLIC COMPOUND AND USE THEREOF” (Jiangsu Deyuan Pharmaceutical Co.,Ltd., priority 2023, dated 2024).

What was measured:
MDR1-MDCKII cells = experiment: Permeability test (MDR1-MDCKII monolayer, bidirectional transport); type: in vitro ADME; details: 2 µM
Method: (§1) Experimental objective: The permeability and efflux ratio of the compound of the present disclosure were determined using the MDR1-MDCKII monolayer cell model to assess its membrane permeability and potential for P-gp-mediated efflux transport.
(§2) Experimental protocol: MDR1-MDCKII cells (obtained from the Netherlands Cancer Institute) were seeded in 96-well plates (obtained from Corning) at a cell density of 3.33 × 10^5 cells/mL and cultured for 4 to 7 days to form confluent cell monolayers. Hank's balanced salt solution containing 10 mM HEPES (pH 7.40) was used as the transport buffer. The test compound was evaluated for bidirectional transport at a concentration of 2 µM, with the DMSO concentration in the incubation system maintained below 1%. After adding the samples, the cell plate was incubated at 37±1°C, 5% CO2, and saturated humidity for 2.5 hours. All samples were quantitatively analyzed using the LC-MS/MS method. The apparent permeability coefficient (Papp, cm/s) and efflux ratio (ER) were calculated using the following formula. Apparent permeability coefficient (Papp, cm/s) was calculated using the following formula: Papp = (dCr/dt) x Vr / (A x C0). Herein, dCr/dt represents the cumulative concentration of the compound at the receiving end per unit time (µM/s); Vr is the volume of the solution at the receiving end (with solution volumes at the apical and basolateral ends being 0.075 mL and 0.250 mL, respectively); A is the relative surface area of the cell monolayer (0.143 cm^2); C0 is the initial concentration of the test substance at the dosing end (µM) or the peak area ratio of the reference substance. The efflux ratio was calculated using the following formula: ER = Papp (BA)/ Papp (AB). Table 7: Permeability test results of compounds

[1] = In vivo pharmacokinetics study in rats; details: male SD rats, oral 2 mg/kg
[2] = Plasma protein binding rate test (equilibrium dialysis), cynomolgus monkey plasma; details: 2 µM, equilibrium dialysis 4 hours, 37°C
[3] = Plasma protein binding rate test (equilibrium dialysis), human plasma; details: 2 µM, equilibrium dialysis 4 hours, 37°C
[4] = In vitro liver microsome metabolic stability study; details: human liver microsomes 0.5 mg/mL, 1 µM compound, up to 60 minutes
[5] = Plasma protein binding rate test (equilibrium dialysis), SD rat plasma; details: 2 µM, equilibrium dialysis 4 hours, 37°C
[6] = In vivo pharmacokinetic study in cynomolgus monkeys; details: male cynomolgus monkeys, oral 3 mg/kg
[7] = Permeability test (MDR1-MDCKII monolayer, bidirectional transport); type: in vitro ADME; details: dog; for efflux ratio at 2.5 h, 2 µM: MDCK-MDR1, pH 7.4, ER = Papp (BA)/ Papp (AB); for Papp A→B at 2.5 h, 2 µM: MDCK-MDR1, pH 7.4, pH 7.40, 2.5 hours, A to B, read-out: Apparent permeability coefficient (Papp (AB), 10^-6 cm/s)
Method: as §1, §2

in vitro = details: rat, plasma
in vivo = details: cynomolgus monkey, po, 1 mg/kg

Row | SMILES | efflux ratio at 2.5 h, 2 µM [7] | Papp A→B at 2.5 h, 2 µM [7] [×10⁻⁶ cm/s] | fraction unbound at 4 h, 2 µM (in vitro) | AUC(0-t) at 24 h (in vivo) [µM·h] | Cmax (in vivo) [nM] | bioavailability (in vivo) [%] | half-life (in vivo) [min] | other results
1 | CCC(=O)N[C@@H]1CCCc2c(-c3ccc4c(ccc(=O)n4C)c3)cncc21 (single isomer, unassigned) [Compound 001] | – | – | – | – | – | – | – | Efflux ratio (ER) (MDR1-MDCKII cells; ER = Papp (BA)/ Papp (AB), 150 min): 1.76; Apparent permeability coefficient (Papp (AB), 10^-6 cm/s) (MDR1-MDCKII cells; pH 7.40, 2.5 hours, A to B): 17.2 10^-6 cm/s; F (%) [1]: 80%; AUC0-24h ([1]; plasma): 59.097 µM·h; Cmax ([1]; plasma): 7.63 µM; T1/2 ([1]; plasma): 4.61 h; Plasma protein binding rate (%) in cynomolgus monkeys [2]: 74.6%; Human plasma protein binding rate (%) [3]: 76.1%; Intrinsic hepatic clearance CLint(liver) [4]: <8.6 mL/min/kg; Plasma protein binding rate (%) in SD rats [5]: 92.1%; F (%) [6]: 120%; AUC0-24h ([6]; plasma): 23.174 µM·h; Cmax ([6]; plasma): 4 µM; T1/2 ([6]; plasma): 4.99 h
2 | CCC(=O)NC1CCCc2c(-c3cc4ccc(=O)n(C)c4s3)cncc21 (single isomer, unassigned) [Compound 023] | 1.28 | 20.8 | 0.096 | 8.92 | 1320 | 76.5 | 288 | –
3 | CCC(=O)NC1CCCc2c(-c3cc4c(s3)N(C)C(=O)CC4)cncc21 (single isomer, unassigned) [Compound 017] | 0.95 | 23.2 | 0.051 | 7.29 | 1070 | 66 | 318 | –
